Results: article PMC10629583, “Specific inhibition of an anticancer target, polo-like kinase 1, by allosterically dismantling its mechanism of substrate recognition” (Proceedings of the National Academy of Sciences of the …, 2023)
“Also recorded” adds a separate entry of the source.

Experiments:
[1] = target: 5-HT2A (Homo sapiens, UniProt P28223); assay: PDSP off-target binding screen; settings: for inhibition at 10 µM: read-out: Primary screen AVE(%inhib)±SD
[2] = test system: 45 receptors and channels; assay: PDSP off-target screen (whole panel); type: binding, human
Excerpt: (§1) PDSP no. Compound Interactions (Ki, µM)
(§2) 60477 Allopole-A None observed.
(§3) trigger a secondary screen at that receptor.

[3] = target: T1, 5-HT6 (Homo sapiens, UniProt P50406); assay: PDSP off-target binding screen; settings: for inhibition at 10 µM: read-out: Primary screen AVE(%inhib)±SD; for Ki: read-out: Secondary screen Ki
T1 construct: NIMH Psychoactive Drug Screening Program (UNC)
T1 sequence (P50406 whole entry): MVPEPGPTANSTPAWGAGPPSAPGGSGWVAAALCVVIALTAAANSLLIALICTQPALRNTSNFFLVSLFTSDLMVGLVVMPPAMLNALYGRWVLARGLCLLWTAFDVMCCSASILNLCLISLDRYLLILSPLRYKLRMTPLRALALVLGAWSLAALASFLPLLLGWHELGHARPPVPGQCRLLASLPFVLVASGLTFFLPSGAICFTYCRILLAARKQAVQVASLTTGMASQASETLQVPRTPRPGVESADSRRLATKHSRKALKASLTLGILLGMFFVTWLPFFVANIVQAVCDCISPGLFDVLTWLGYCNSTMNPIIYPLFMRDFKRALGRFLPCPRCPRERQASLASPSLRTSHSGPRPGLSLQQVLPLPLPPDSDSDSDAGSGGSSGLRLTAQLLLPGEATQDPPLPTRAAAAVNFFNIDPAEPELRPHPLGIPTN
Excerpt: as §1, §2, §3

[4] = target: T2, Alpha1B (Homo sapiens, UniProt P35368); assay: PDSP off-target binding screen; settings: for inhibition at 10 µM: read-out: Primary screen AVE(%inhib)±SD; for Ki: read-out: Secondary screen Ki
T2 sequence (P35368 1-520): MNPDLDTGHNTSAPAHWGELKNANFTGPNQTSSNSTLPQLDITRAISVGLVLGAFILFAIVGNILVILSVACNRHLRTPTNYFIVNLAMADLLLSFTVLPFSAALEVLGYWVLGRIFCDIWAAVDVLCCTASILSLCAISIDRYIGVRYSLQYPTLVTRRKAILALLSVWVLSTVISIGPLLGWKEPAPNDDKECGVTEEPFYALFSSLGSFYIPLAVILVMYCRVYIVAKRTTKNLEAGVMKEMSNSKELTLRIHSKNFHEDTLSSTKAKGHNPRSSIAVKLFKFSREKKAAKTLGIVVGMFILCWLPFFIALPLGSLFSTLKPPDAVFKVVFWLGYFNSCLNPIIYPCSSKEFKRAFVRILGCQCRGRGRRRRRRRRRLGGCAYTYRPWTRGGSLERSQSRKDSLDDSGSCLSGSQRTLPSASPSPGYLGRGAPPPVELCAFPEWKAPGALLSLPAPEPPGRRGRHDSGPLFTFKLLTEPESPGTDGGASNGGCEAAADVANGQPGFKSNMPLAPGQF
Excerpt: as §1, §2, §3

[5] = target: T3, Alpha2A (Homo sapiens, UniProt P08913); assay: PDSP off-target binding screen; settings: for inhibition at 10 µM: read-out: Primary screen AVE(%inhib)±SD; for Ki: read-out: Secondary screen Ki
T3 sequence (P08913 1-465): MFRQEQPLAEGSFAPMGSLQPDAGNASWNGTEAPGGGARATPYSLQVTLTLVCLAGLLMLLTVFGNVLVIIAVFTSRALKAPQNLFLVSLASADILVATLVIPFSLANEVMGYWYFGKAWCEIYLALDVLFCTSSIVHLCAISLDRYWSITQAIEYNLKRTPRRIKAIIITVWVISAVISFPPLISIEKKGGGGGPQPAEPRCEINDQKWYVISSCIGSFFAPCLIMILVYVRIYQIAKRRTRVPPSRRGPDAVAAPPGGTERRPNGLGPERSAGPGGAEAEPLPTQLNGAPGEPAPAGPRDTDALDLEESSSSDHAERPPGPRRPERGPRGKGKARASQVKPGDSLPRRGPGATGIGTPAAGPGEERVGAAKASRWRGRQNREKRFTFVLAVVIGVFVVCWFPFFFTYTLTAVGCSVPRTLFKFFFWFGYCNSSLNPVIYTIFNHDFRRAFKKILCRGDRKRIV
Excerpt: as §1, §2, §3

[6] = target: T4, M5 (Homo sapiens, UniProt P08912); assay: PDSP off-target binding screen; settings: for inhibition at 10 µM: read-out: Primary screen AVE(%inhib)±SD; for Ki: read-out: Secondary screen Ki
T4 sequence (P08912 1-532): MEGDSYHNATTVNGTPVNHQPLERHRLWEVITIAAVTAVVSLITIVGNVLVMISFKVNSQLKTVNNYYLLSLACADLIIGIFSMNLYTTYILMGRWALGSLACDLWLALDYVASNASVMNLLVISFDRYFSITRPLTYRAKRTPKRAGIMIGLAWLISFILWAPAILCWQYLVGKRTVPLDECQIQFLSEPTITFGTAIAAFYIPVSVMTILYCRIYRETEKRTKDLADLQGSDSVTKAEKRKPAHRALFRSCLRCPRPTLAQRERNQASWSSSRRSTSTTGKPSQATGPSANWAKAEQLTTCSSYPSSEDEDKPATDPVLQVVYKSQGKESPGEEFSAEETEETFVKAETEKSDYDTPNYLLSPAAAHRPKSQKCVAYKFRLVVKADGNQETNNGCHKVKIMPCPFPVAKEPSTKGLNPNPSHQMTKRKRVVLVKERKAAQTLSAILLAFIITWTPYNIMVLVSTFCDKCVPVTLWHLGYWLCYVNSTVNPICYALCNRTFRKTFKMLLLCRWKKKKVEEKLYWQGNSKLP
Excerpt: as §1, §2, §3

[7] = target: T5, M2 (Homo sapiens, UniProt P08172); assay: PDSP off-target binding screen; settings: for inhibition at 10 µM: read-out: Primary screen AVE(%inhib)±SD; for Ki: read-out: Secondary screen Ki
T5 sequence (P08172 1-466): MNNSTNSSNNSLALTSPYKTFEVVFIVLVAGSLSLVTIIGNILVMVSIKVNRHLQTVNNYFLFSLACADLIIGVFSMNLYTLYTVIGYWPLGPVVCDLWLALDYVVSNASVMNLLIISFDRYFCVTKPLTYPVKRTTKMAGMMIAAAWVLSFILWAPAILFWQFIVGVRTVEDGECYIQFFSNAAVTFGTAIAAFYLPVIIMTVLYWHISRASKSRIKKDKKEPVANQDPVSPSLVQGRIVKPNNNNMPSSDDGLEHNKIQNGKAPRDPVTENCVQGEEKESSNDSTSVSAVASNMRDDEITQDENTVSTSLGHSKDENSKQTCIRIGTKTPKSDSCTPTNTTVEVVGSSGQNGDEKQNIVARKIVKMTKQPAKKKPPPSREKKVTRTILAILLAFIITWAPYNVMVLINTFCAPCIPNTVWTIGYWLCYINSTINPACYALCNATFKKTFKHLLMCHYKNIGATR
Excerpt: as §1, §2, §3

[8] = target: T6, Alpha2B (Homo sapiens, UniProt P18089); assay: PDSP off-target binding screen; settings: for inhibition at 10 µM: read-out: Primary screen AVE(%inhib)±SD; for Ki: read-out: Secondary screen Ki
T6 sequence (P18089 1-450): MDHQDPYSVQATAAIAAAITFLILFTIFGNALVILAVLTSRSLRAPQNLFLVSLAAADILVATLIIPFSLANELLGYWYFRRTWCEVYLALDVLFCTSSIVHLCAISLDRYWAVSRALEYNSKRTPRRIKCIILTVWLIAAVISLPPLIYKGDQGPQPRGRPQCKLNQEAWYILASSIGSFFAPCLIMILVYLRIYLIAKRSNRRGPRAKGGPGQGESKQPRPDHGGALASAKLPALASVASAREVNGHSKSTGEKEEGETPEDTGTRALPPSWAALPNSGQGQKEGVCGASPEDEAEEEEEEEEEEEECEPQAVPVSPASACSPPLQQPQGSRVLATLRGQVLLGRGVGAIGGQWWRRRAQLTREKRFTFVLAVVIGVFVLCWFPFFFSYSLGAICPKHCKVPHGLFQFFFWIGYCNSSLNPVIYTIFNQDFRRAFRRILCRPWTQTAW
Excerpt: as §1, §2, §3

[9] = target: 5-HT7A (Homo sapiens, UniProt P34969); assay: PDSP off-target binding screen; settings: for inhibition at 10 µM: read-out: Primary screen AVE(%inhib)±SD; for Ki: read-out: Secondary screen Ki
5-HT7A, sequence (P34969 1-445 isoform P34969-2): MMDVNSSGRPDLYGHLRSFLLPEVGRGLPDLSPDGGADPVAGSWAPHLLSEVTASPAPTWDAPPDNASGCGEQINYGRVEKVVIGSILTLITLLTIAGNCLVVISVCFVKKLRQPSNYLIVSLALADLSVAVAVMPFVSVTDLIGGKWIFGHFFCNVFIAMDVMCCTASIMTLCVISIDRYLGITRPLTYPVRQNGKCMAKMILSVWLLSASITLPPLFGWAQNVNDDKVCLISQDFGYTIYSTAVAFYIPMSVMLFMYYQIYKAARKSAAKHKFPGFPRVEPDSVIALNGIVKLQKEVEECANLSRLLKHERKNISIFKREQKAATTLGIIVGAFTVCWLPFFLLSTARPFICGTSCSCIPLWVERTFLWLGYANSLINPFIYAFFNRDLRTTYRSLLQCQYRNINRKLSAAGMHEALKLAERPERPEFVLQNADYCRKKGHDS
Excerpt: as §1, §2, §3

5-HT2A, sequence (P28223 whole entry): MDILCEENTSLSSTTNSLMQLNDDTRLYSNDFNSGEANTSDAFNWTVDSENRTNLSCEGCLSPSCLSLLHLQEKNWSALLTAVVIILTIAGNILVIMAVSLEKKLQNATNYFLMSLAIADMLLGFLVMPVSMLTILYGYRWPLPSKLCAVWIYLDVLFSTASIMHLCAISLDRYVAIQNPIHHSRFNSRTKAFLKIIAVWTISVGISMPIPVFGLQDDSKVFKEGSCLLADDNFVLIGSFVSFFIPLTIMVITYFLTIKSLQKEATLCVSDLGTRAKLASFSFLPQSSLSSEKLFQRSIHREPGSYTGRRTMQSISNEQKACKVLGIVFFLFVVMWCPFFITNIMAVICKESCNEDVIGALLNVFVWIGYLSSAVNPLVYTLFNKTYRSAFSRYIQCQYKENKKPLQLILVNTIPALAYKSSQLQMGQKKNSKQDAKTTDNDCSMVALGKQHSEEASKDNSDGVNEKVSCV

O=c1c2sc(Cl)cc2n2c(=S)[nH]nc2n1CC1CC1 [Allopole-A]
Ki [1]: > 10 µM
inhibition at 10 µM [1]: 37 ± 10.4%
Interactions (Ki, µM), summary of PDSP screen (in words) [2]: None observed; also recorded: no interactions
inhibition at 10 µM [3]: -5 ± 11.7%
Ki [3]: > 10 µM
inhibition at 10 µM [4]: -7.7 ± 9.7%
Ki [4]: > 10 µM
inhibition at 10 µM [5]: -6.3 ± 7.9%
Ki [5]: > 10 µM
inhibition at 10 µM [6]: 130 ± 3%
Ki [6]: > 10 µM
inhibition at 10 µM [7]: 21.1 ± 19.7%
Ki [7]: > 10 µM
inhibition at 10 µM [8]: -6.4 ± 7.1%
Ki [8]: > 10 µM
inhibition at 10 µM [9]: -88.1 ± 20.8%
Ki [9]: > 10 µM

Cn1cnc([N+](=O)[O-])c1Sc1nnc2n(CC3CC3)c(=O)c3sc(Cl)cc3n12 [Allopole]
Ki [1]: 9.2 µM
inhibition at 10 µM [1]: 52.4 ± 11.8%
Interactions (Ki, µM), summary of PDSP screen (in words) [2]: only two weak µM interactions
inhibition at 10 µM [3]: 21.9 ± 15.6%
Ki [3]: > 10 µM
inhibition at 10 µM [4]: -1.6 ± 9.5%
Ki [4]: > 10 µM
inhibition at 10 µM [5]: 9.4 ± 4.6%
Ki [5]: > 10 µM
inhibition at 10 µM [6]: 95 ± 7.4%
Ki [6]: > 10 µM
inhibition at 10 µM [7]: 9.3 ± 19.3%
Ki [7]: > 10 µM
inhibition at 10 µM [8]: 8.3 ± 16.4%
Ki [8]: > 10 µM
inhibition at 10 µM [9]: 14.9 ± 9.9%
Ki [9]: > 10 µM
